Experimental data: PMC12373846, “Hemoglobin as a pseudoperoxidase and drug target for oxidative stress-related diseases” (Signal Transduction and Targeted Therapy, 2025)

Key:
GPx = GPx colorimetric assay; type: biochemical; details: standard GPx assay
Procedure: To assess the GPx activity, the reaction was prepared in a 96-well plate by adding glutathione reductase and glutathione solution, GPx enzyme (5µl, final concentration 60 U/ml), and the drug (1 µl of KDS12025 and HTEPB) to a total volume of 100 µl per well, followed by manufactural protocol (Abcam, ab102530). The plate was incubated at room temperature for 15 min to allow pre-reactions and drug interactions to occur. Following the incubation, the reaction was initiated by adding cumene hydroperoxide as the substrate to each well. The absorbance at 340 nm was measured in kinetic mode for 10–20 min, and the rate of NADPH consumption was used to calculate GPx activity, reflecting the enzyme’s ability to reduce the hydroperoxide substrate in the presence of the test compound.

APP/PS1 mice [1] = experiment: Immunohistochemistry of hippocampus, APP/PS1 mice; type: in vivo, mouse; details: 3 mg/kg/day i.p.; for mean intensity of Iba1 in the hippocampus: Fig. S10e; for mean intensity of GFAP in the hippocampus: Fig. S10d
Procedure: (§1) For an animal model of AD, both sexes of 10- to 18-month-old APP/PS1 mice were maintained and used as previously described.[76],[77] To test the effects of novel H2O2-decomposing enhancers in the AD model, the mice were treated by i.p. injection with KDS12008 (3 mg/kg/day), KDS12017 (3 mg/kg/day), or KDS12025 (3 or 10 mg/kg/day) once per day for 1 or 2 weeks, depending on the experimental protocol. All drugs were dissolved in 200 μl of saline, and the amount of each drug was calculated on the basis of the weight (kg) of the mouse. Moreover, KDS12025 (3 mg/kg/day) was orally administered to the AD model for 2 weeks ad libitum.
The mice were deeply anesthetized with vaporized 1% isoflurane and placed into stereotaxic frames (RWD Life Science, China). Following an incision on the midline of the scalp, a hole was drilled into the skull above the hippocampus. AAV-GFAP104-GFP or AAV-GFAP104-DTR-GFP was bilaterally microinjected into the hippocampal CA1 region (AP, −2.0 mm; ML, ±1.5 mm; DV, −1.65 mm from the bregma). Diphtheria toxin (2 mg/ml) was administered for 16 days as previously described.[77] For shRNA knockdown, AAV-pSicoR-Hbβ-shRNA-mCherry or AAV-pSicoR-Sc-shRNA-mCherry was microinjected into the same coordinate system. A total of 0.8 µl of the virus was injected via a syringe pump (KD Scientific, USA). The injection procedures were implemented before 5 weeks of the experiments. For cell type-specific knockdown, AAV-pSico-Hbβ-shRNA-GFP or AAV-pSico-Sc-shRNA-GFP was combined with either AAV-CaMKII-Cre-mCherry for neuronal targeting or AAV-GFAP-Cre-mCherry for astrocyte targeting. The viruses were bilaterally injected into the hippocampus and substantia nigra via the same stereotaxic coordinates and injection procedures. All viruses used in this study were produced at the Institute for Basic Science virus facility (IBS virus facility, Korea). To investigate the effects of 0.1 mg/kg/day KDS12025, GiD mice were injected with diphtheria toxin (2 mg/ml) daily for 16 days. Concurrently, KDS12025 was administered ad libitum (0.1 mg/kg/day) during the same period.
The mice were deeply anesthetized with 2% isoflurane and positioned on the operating table. After the abdomen was opened and the heart was exposed, the […] were perfused with saline, followed by 4% paraformaldehyde (PFA) in 0.1 M PBS. The mice were decapitated, and the brains were excised from the skull. Excised brains were postfixed in 4% PFA overnight at 4 °C and dehydrated in 30% sucrose for 48 h. Coronal hippocampal sections were cut at 30 µm thickness with a cryostat and stored in storage solution. For the ALS experiments, lumbar spinal cords (L2–L5) were also carefully dissected and immediately immersed in 4% PFA for postfixation. The sections were fully washed in 0.1 M PBS and incubated for 1 h in blocking solution (0.3% Triton X-100, 2% donkey and goat serum in 0.1 M PBS). Next, a mixture of primary antibodies in the blocking solution was used for immunostaining on a shaker overnight at 4 °C. The sections were washed in PBS three times. After washing, the sections were incubated with the corresponding fluorescent secondary antibodies for 1 h at RT. DAPI staining was performed by adding a DAPI solution (1:2000) during the second washing step. After the washing step was complete, the sections were mounted on cover slides with mounting medium. A series of fluorescence images were obtained with an LSM900 (Zeiss, Germany) confocal microscope or Lattice SIM Elyra 7 (Zeiss, Germany). The 15–22 μm Z stack images in 1–2 μm steps were processed for image analysis, which was performed via the ImageJ (NIH, US) and ZEN digital imaging for light microscopy blue system (Zeiss, Germany) programs.

APP/PS1 mice [2] = experiment: Passive avoidance test, APP/PS1 mice; type: in vivo, mouse; details: 3 mg/kg/day i.p., 16 times, Fig. S10b
Procedure: as §1
Sufficiently handled mice were ready before the PAT. The mice were placed in a two-compartment (light and dark) shuttle chamber with a shock generator (Ugo Basile, Italy). On the first day, the mice were placed in the light compartment for acquisition. The mice were allowed to explore the light compartment for 60 s, after which the door separating the light and dark compartments was raised to allow the mice to enter the dark compartment. When the mice entered the dark compartment, the separating door was closed immediately, and an electrical foot shock (0.5 mA, 2 s duration) was delivered through the floor grid. The mice were then moved back to the home cage, and the retention trial was conducted 24 h after the acquisition. On the second day, the mice were again placed in the light compartment for the retention trial. After 60 s, the door was raised to allow the mice to enter the dark compartment. The latency to step through the dark compartment before and after the electric shock was recorded for up to 540 s.

Structure (SMILES) | effect on GPx activity (GPx) | mean intensity of Iba1 in the hippocampus (APP/PS1 mice [1]) | mean intensity of GFAP in the hippocampus (APP/PS1 mice [1]) | PAT transfer latency, acquisition (APP/PS1 mice [2]) | PAT transfer latency, retrieval (APP/PS1 mice [2])
O=C(O)c1cc(NCCc2ccc(C(F)(F)F)cc2)ccc1O [HTPEB, 2-hydroxy-5-[2-(4-trifluoromethyl-phenyl)-ethylamino]-benzoic acid, reference compound] | no enhancement |  |  |  | 
CN(C)c1ccc(NCCc2ccc(C(F)(F)F)cc2)cc1.Cl [KDS12008, N^1,N^1-dimethyl-N^4-(4-(trifluoromethyl)phenethyl)benzene-1,4-diamine hydrochloride salt] |  | 1562±64.27 | 2063±93.76 | 44.42±13.85 | 233.6±102.3
CNc1ccc(NCCc2ccc(C(F)(F)F)cc2)cc1.Cl [KDS12017, N^1-methyl-N^4-(4-(trifluoromethyl)phenethyl)benzene-1,4-diamine hydrochloride salt] |  | 1556±53.65 | 1711±145.9 | 71.53±23.24 | 305.6±137.5
